Source: patent US20220313651A1, “INHIBITORS OF ZIKA VIRUS INFECTION” (priority 2019, published 2022)
Like-named read-outs stand apart in the source and are kept apart here.

What was measured:
[1] = tested on: ZIKV human strain PAN2016 (2016/Panama); assay: Plaque reduction inhibition assay in Vero E6 cells, ZIKV PAN2016; type: cell-based, Zika virus (ZIKV)
Description: (§1) A plaque reduction inhibition assay was carried out to measure the inhibitory activity of Z-medicaments against infections of ZIKV and DENV. […] The compound-virus mixtures were then transferred to Vero E6 cells (10^5/well) and incubated at 37° C. for 1 h.

[2] = tested on: ZIKV rhesus macaque strain MR 766 (1947/Uganda); assay: Plaque reduction inhibition assay in Vero E6 cells, ZIKV MR 766; type: cell-based, Zika virus (ZIKV)
Description: as §1

ZIKV NS2B-NS3 protease = target: T1, ZIKV NS2B-NS3 protease (Zika virus, UniProt Q32ZE1); assay: ELISA binding to ZIKV NS2B-NS3 protease
T1 construct: 49-97) and NS2 protein (residues 1-185) through a covalent; made in house; host or cells: E. coli
Description: (§2) Binding of compounds (NPs) to ZIKV full-length E (FIG. 3A), EDIII (FIG. 3B), and NS2B-NS3 (FIG. 3C) proteins, was detected by ELISA. The percent binding was reported in the presence or absence of serially diluted NPs using the formula (1-[E/EDIII-NP]/[E/EDIII])×100 (for E/EDIII binding) or (1-[NS2B-NS3-NP]/[NS2B-NS3])×100 (for NSEB-NS3 binding). […] The concentrations of ZIKV EDIII and mAbs were 1.5 and 0.5 μg/ml, respectively. […] The concentrations of substrate (Bz-Nle-Lys-Lys-Arg-AMC) and ZIKV NS2B-NS3 protein were 4 μM and 1 μg/ml, respectively. The percent inhibition of protease activity was calculated in the presence or absence of serially diluted compounds using the formula (1-[NS2B-NS3-substrate-NP]/[NS2B-NS3-substrate])×100. The IC50 values were calculated based on the percent inhibition. The data are expressed as mean±s.e.m. (n=4).
(§3) The data are expressed as mean±s.e.m. (n=4), and DMSO was used as negative control. Surface plasmon resonance (SPR) analysis of the binding between ST087010 and ZIKV EDIII (FIG. 6D) or NS2B-NS3 (FIG. 6E) protein was performed. Binding affinity was shown as KD (equilibrium dissociation constant).
(§4) The binding between the Z-medicament and ZIKV full-length E protein, EDIII protein (E residues 298-409 fused with a C-terminal human Fc), or NS2B-NS3 protease was carried out by ELISA. Briefly, ELISA plates were pre-coated with the proteins described above at 4° C. overnight, and blocked with 2% fat-free milk at 37° C. for 2 h. Serial dilutions of the Z-medicament or DMSO (control) were then added to the plates and incubated at 37° C. for 2 h. The plates were washed with PBS containing Tween-20 (PBST), and incubated at 37° C. for 1 h with ZIKV EDIII-specific human mAb ZKA64-LALA (0.5 μg/ml) (for binding to ZIKV full-length E and EDIII proteins), or mouse sera specific to ZIKV NS2B-NS3 (for binding to NS2B-NS3 protease). The plates were washed with PBST, and incubated with horseradish peroxidase (HRP)-conjugated anti-human IgG-Fab (1:3000) or anti-mouse IgG (1:3000) antibody at 37° C. for 1 h. The 3,3′,5,5′-tetramethylbenzidine (TMB) substrate was added to the plates, and the reaction was stopped by 1 N H2SO4. Absorbance at 450 nm (A450 value) was measured by ELISA microplate reader.
(§5) Briefly, ELISA plates were coated with each protein (1 μg/ml) at 4° C. overnight, and were then incubated with blocking buffer containing 2% fat-free milk in PBST at 37° C. for 2 h. The above compounds, or DMSO control, at serial dilutions were added to the plates, and incubated at 37° C. for 2 h. After three washes using PBST, the plates were incubated at 37° C. for 2 h with ZIKV EDIII-specific human mAb ZKA64-LALA (0.5 μg/ml) (for binding to ZIKV full-length E or EDIII protein), or ZIKV NS2B-NS3-specific mouse sera (for binding to NS2B-NS3 protein). After further washes, the plates were incubated with HRP-conjugated anti-human IgG-Fab (1:3,000) or anti-mouse IgG (1:3,000) antibody at 37° C. for 1 h.

[3] = target: ZIKV full-length E protein (Zika virus, UniProt Q32ZE1); assay: ELISA binding to ZIKV full-length E protein
Description: as §2, §3, §4
as §5, with “1 h. The plates were incubated with substrate TMB, and the reaction was stopped by addition of 1 N H2SO4. Absorbance at 450 nm (A450 values) was measured by an ELISA microplate reader. EC50 values were calculated.” for “1 h.”

[4] = target: T2, ZIKV EDIII protein (E residues 298-409) (Zika virus, UniProt Q32ZE1, D679E/I627V/V603I/V629A); type: binding; conditions: ELISA
T2 construct: human Fc (C)
Description: as §2, §3, §4
Briefly, ELISA plates were coated with each protein (1 μg/ml) at 4° C. overnight, and were then incubated with blocking buffer containing 2% fat-free milk in PBST at 37° C. for 2 h. The above compounds, or DMSO control, at serial dilutions were added to the plates, and incubated at 37° C. for 2 h. […] Absorbance at 450 nm (A450 values) was measured by an ELISA microplate reader. EC50 values were calculated.

[5] = Zika virus, Vero C1008, Vero E6 cells, Table 1, read-out: IC50 against ZIKV strain PAN2016
[6] = Zika virus, Vero C1008, in Macaca mulatta, Vero E6 cells, Table 1, read-out: IC50 against ZIKV strain MR 766

Cc1cc2c(C(C)C)c(O)c(O)c(C=O)c2c(O)c1-c1c(C)cc2c(C(C)C)c(O)c(O)c(C=O)c2c1O [Gossypol, gossypol] was tested, and the IC50 [1, 5] was 3.48 µM, the IC50 ([1]; Zika virus, Vero C1008, read-out: ZIKV strains IC50, PAN2016) was 3.78 ± 0.3 µM and the IC50 [2, 6] was 3.75 ± 0.01 µM. The IC50 ([2]; Zika virus, Vero C1008, in Macaca mulatta, read-out: ZIKV strains IC50, MR766) was 4.14 ± 0.05 µM.
C[C@H]1[C@H]2CC[C@H]3[C@@H]4CC=C5C[C@@H](N(C)C)CC[C@]5(C)[C@H]4CC[C@]23CN1C [Conessine, conessine] was tested, and the “Binding to ZIKV NS2B-NS3 protein (in words)” value (ZIKV NS2B-NS3 protease) was “bound to no ZIKV proteins tested”, the “Binding to ZIKV full-length E protein (in words)” value [3] was “bound to no ZIKV proteins tested” and the “Binding to ZIKV EDIII protein (in words)” value [4] was “bound to no ZIKV proteins tested”.
With COc1cc(/C=C/C(=O)CC(=O)/C=C/c2ccc(O)c(OC)c2)ccc1O [Curcumin, curcumin] the “Binding to ZIKV NS2B-NS3 protein (in words)” value (ZIKV NS2B-NS3 protease) was “much lower binding affinity” and the “Binding to ZIKV full-length E protein (in words)” value [3] was “much lower binding affinity”.
For Cc1cc2c(C(C)C)c(O)c(O)c(/C=N/n3c(=O)[nH][nH]c3=O)c2c(O)c1-c1c(C)cc2c(C(C)C)c(O)c(O)c(/C=N/n3c(=O)[nH][nH]c3=O)c2c1O [ST087010], the EC50 (ZIKV NS2B-NS3 protease; detected with NS2B-NS3-immunized mouse sera, read-out: EC50, binding to ZIKV NS2B-NS3 protein) was 21.9 µM, the EC50 ([3]; detected with mAb ZKA64-LALA) was 6.47 µM and the IC50 ([1]; Vero E6 cells, Table 7, gossypol derivatives, read-out: ZIKV strains IC50, PAN2016) was 3.17 ± 0.18 µM. The IC50 ([2]; Vero E6 cells, Table 7, gossypol derivatives, read-out: ZIKV strains IC50, MR766) was 3.52 ± 0.2 µM and the EC50 ([4]; detected with mAb ZKA64-LALA, read-out: EC50, binding to ZIKV EDIII protein) was 6.13 µM.
In the case of C[C@@H]1CC[C@@]2(OC1)O[C@H]1[C@@H](O)[C@H]3[C@@H]4CC[C@H]5C[C@@H](O[C@@H]6O[C@H](CO)[C@H](O[C@@H]7O[C@H](CO)[C@@H](O)[C@H](O[C@@H]8OC[C@@H](O)[C@H](O)[C@H]8O)[C@H]7O[C@@H]7O[C@H](CO)[C@H](O)[C@H](O[C@@H]8O[C@H](CO)[C@@H](O)[C@H](O)[C@H]8O)[C@H]7O)[C@H](O)[C@H]6O)[C@H](O)C[C@]5(C)[C@H]4CC[C@]3(C)[C@H]1[C@@H]2C [Digitonin, digitonin], the “Binding to ZIKV NS2B-NS3 protein (in words)” value (ZIKV NS2B-NS3 protease) is reported as “bound to no ZIKV proteins tested”, the “Binding to ZIKV full-length E protein (in words)” value [3] is reported as “bound to no ZIKV proteins tested” and the IC50 [1, 5] is reported as 4.31 µM. For the same compound, the IC50 [2, 6] was 3.77 ± 0.31 µM and the “Binding to ZIKV EDIII protein (in words)” value [4] was “bound to no ZIKV proteins tested”.
